Measured values reported in the supplement of paper PMC11208160.

Assay: recombinant UMI read abundance after kanamycin selection (control-corrected) (log10(CPM+1)); higher = more efficient recombination; extreme values may be limits of the assay; sequences stand for … in AGTGCAGAGAAAATCGGCCAGTTTTCTCTGCCTGCAGTCCGCATGCCGTGGGACCCCTTGGGTTCTAACCTGTTGCCTAGATTTATGCAGCGGACTGCCTTTCTCCCAAAGTGATAAACCGG…AGGTTGGTTTCACT; site = the 11-nt donor
Procedure, shortened: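 In Escherichia coli, a pool of donor and donor-binding-loop pairs, each with a 12-nt UMI, was tested for the IS621 bridge recombinase. Plating was on IPTG (0.07 mM) plus kanamycin, or without selection, in two replicates. Recombinant UMIs were amplified by PCR across the donor–target junction and sequenced, and counts were reported as log10(CPM+1) after averaging and control-derived scaling.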
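Also: IS621 bridge recombinase in Escherichia coli cells against a fixed T5 target plasmid.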

Sequence | recombinant UMI read abundance (log10)
CTCCCTACATGGACCGGTTTTCCCGGTAATCCGTATTTGAG (site CTCCGTACTCT) | 0.0179
CTCCCTACATGGACCGGTTTTCCCGGTAATCCGTATTTGAG (site CTCCTTACTCT) | 0.00587
CTCCCTACATGGACCGGTTTTCCCGGTAATCCGTATTTGAG (site CTCGCTACTCT) | 0.0283
CTCCCTACATGGACCGGTTTTCCCGGTAATCCGTATTTGAG (site CTCTCTACTCT) | 0.00795
CTCCCTACATGGACCGGTTTTCCCGGTAATCCGTATTTGAG (site CTGCCTACTCT) | 0.0259
CTCCCTACATGGACCGGTTTTCCCGGTAATCCGTATTTGAG (site CTTCCTACTCT) | 0.0102
CTCCCTACATGGACCGGTTTTCCCGGTAATCCGTATTTGAG (site GTCCCTACTCT) | 0.0115
CTCCCTACATGGACCGGTTTTCCCGGTAATCCGTATTTGAG (site TTCCCTACTCT) | 0.00609
CTCCCTGCATGGACCGGTTTTCCCGGTAATCCGTATTTGAG (site CTCCCTACTCT) | 0.664
CTCCCTGCATGGACCGGTTTTCCCGGTAATCCGTATTTGAG (site CTCCCTCCTCT) | 0.00848
CTCCCTGCATGGACCGGTTTTCCCGGTAATCCGTATTTGAG (site CTCCCTGCTCT) | 1.16
CTCCCTGCATGGACCGGTTTTCCCGGTAATCCGTATTTGAG (site CTCCCTTCTCT) | 0.325
CTCCCTTCATGGACCGGTTTTCCCGGTAATCCGTATTTGAG (site CTCCCTACTCT) | 0.0118
CTCCCTTCATGGACCGGTTTTCCCGGTAATCCGTATTTGAG (site CTCCCTCCTCT) | 0.0285
CTCCCTTCATGGACCGGTTTTCCCGGTAATCCGTATTTGAG (site CTCCCTGCTCT) | 0.00848
CTCCCTTCATGGACCGGTTTTCCCGGTAATCCGTATTTGAG (site CTCCCTTCTCT) | 0.898
CTCCGAACATGGACCGGTTTTCCCGGTAATCCGTATTTGCG (site CTCCGAACTCG) | 0.829
CTCCGTGCATGGACCGGTTTTCCCGGTAATCCGTATTTGGC (site CTCCGTGCTGC) | 1.87
CTCGAAACATGGACCGGTTTTCCCGGTAATCCGTATTTGCA (site CTAGAAACTTG) | 0

Sequence | recombinant UMI read abundance (log10)
CTCGAAACATGGACCGGTTTTCCCGGTAATCCGTATTTGCA (site CTCGAAACTTG) | 2.34
CTCGAAACATGGACCGGTTTTCCCGGTAATCCGTATTTGCA (site CTGGAAACTTG) | 0
CTCGAAACATGGACCGGTTTTCCCGGTAATCCGTATTTGCA (site CTTGAAACTTG) | 0
CTCGAACCATGGACCGGTTTTCCCGGTAATCCGTATTTGAC (site CTCGAACCTGT) | 0
CTCGAATCATGGACCGGTTTTCCCGGTAATCCGTATTTGAA (site CTCGAATCTTT) | 1.86
CTCGAGTCATGGACCGGTTTTCCCGGTAATCCGTATTTGTG (site CTCGAGTCTCA) | 1.87
CTCGATACATGGACCGGTTTTCCCGGTAATCCGTATTTGCT (site CTCGATACTAG) | 2.37
CTCGCTACATGGACCGGTTTTCCCGGTAATCCGTATTTGAT (site CTCGCTACTAT) | 1.7
CTCGGATCATGGACCGGTTTTCCCGGTAATCCGTATTTGGA (site CTCGGATCTTC) | 1.56
CTCGGGCCATGGACCGGTTTTCCCGGTAATCCGTATTTGAG (site CTCGGGCCTCT) | 0
CTCGGTCCATGGACCGGTTTTCCCGGTAATCCGTATTTGCA (site CACGGTCCTTG) | 0.779
CTCGGTCCATGGACCGGTTTTCCCGGTAATCCGTATTTGCA (site CCCGGTCCTTG) | 1.6
CTCGGTCCATGGACCGGTTTTCCCGGTAATCCGTATTTGCA (site CGCGGTCCTTG) | 0.00731
CTCGGTCCATGGACCGGTTTTCCCGGTAATCCGTATTTGCA (site CTCGGTCCTTG) | 0.517
CTCGTCGCATGGACCGGTTTTCCCGGTAATCCGTATTTGGG (site CTCGTCGCTCC) | 0.0128
CTCTACACATGGACCGGTTTTCCCGGTAATCCGTATTTGCT (site ATCTACACTAG) | 0.294
CTCTACACATGGACCGGTTTTCCCGGTAATCCGTATTTGCT (site CACTACACTAG) | 1.63
CTCTACACATGGACCGGTTTTCCCGGTAATCCGTATTTGCT (site CCCTACACTAG) | 2.09
CTCTACACATGGACCGGTTTTCCCGGTAATCCGTATTTGCT (site CGCTACACTAG) | 0.891

Sequence | recombinant UMI read abundance (log10)
CTCTACACATGGACCGGTTTTCCCGGTAATCCGTATTTGCT (site CTATACACTAG) | 0.775
CTCTACACATGGACCGGTTTTCCCGGTAATCCGTATTTGCT (site CTCAACACTAG) | 0
CTCTACACATGGACCGGTTTTCCCGGTAATCCGTATTTGCT (site CTCCACACTAG) | 2.02
CTCTACACATGGACCGGTTTTCCCGGTAATCCGTATTTGCT (site CTCGACACTAG) | 0.288
CTCTACACATGGACCGGTTTTCCCGGTAATCCGTATTTGCT (site CTCTAAACTAG) | 0
CTCTACACATGGACCGGTTTTCCCGGTAATCCGTATTTGCT (site CTCTACACTAA) | 0.362
CTCTACACATGGACCGGTTTTCCCGGTAATCCGTATTTGCT (site CTCTACACTAC) | 0.0172
CTCTACACATGGACCGGTTTTCCCGGTAATCCGTATTTGCT (site CTCTACACTAG) | 2.41
CTCTACACATGGACCGGTTTTCCCGGTAATCCGTATTTGCT (site CTCTACACTAT) | 0.916
CTCTACACATGGACCGGTTTTCCCGGTAATCCGTATTTGCT (site CTCTACACTCG) | 0.238
CTCTACACATGGACCGGTTTTCCCGGTAATCCGTATTTGCT (site CTCTACACTGG) | 1.37
CTCTACACATGGACCGGTTTTCCCGGTAATCCGTATTTGCT (site CTCTACACTTG) | 1.15
CTCTACACATGGACCGGTTTTCCCGGTAATCCGTATTTGCT (site CTCTACCCTAG) | 0
CTCTACACATGGACCGGTTTTCCCGGTAATCCGTATTTGCT (site CTCTACGCTAG) | 0.84
CTCTACACATGGACCGGTTTTCCCGGTAATCCGTATTTGCT (site CTCTACTCTAG) | 0.78
CTCTACACATGGACCGGTTTTCCCGGTAATCCGTATTTGCT (site CTCTAGACTAG) | 0.0131
CTCTACACATGGACCGGTTTTCCCGGTAATCCGTATTTGCT (site CTCTATACTAG) | 0.00765
CTCTACACATGGACCGGTTTTCCCGGTAATCCGTATTTGCT (site CTCTCCACTAG) | 0
CTCTACACATGGACCGGTTTTCCCGGTAATCCGTATTTGCT (site CTCTGCACTAG) | 0.00734
